Results from PubChem BioAssay (NCI).
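GI50: concentration for 50% inhibition of growth. TGI: concentration producing complete growth inhibition.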

How the values were obtained:
Test in all cases: inhibition of tumour cell growth, NCI panel, 384-well format; in the data active = GI50 below about 0.43 µM; inactive = the rest
[1] = tested on: RXF 393 renal
[2] = tested on: NCI-H23 lung
[3] = tested on: NCI-H460 NSCLC
[4] = tested on: SF-539 CNS
[5] = tested on: HCC-2998 colon
[6] = tested on: NCI-H522 lung
[7] = tested on: U251 glioblastoma
[8] = tested on: SK-MEL-5 melanoma
[9] = tested on: ACHN renal
[10] = tested on: OVCAR-4 ovarian
[11] = tested on: SF-295 CNS
[12] = tested on: K-562 leukemia
[13] = tested on: MDA-MB-468 breast
[14] = tested on: CCRF-CEM leukemia
[15] = tested on: HCT-116 colon
[16] = tested on: MCF7 breast
[17] = tested on: M14 melanoma
[18] = tested on: OVCAR-3 ovarian
[19] = tested on: UACC-257 melanoma
[20] = tested on: SNB-19 CNS
[21] = tested on: A549 NSCLC
[22] = tested on: HOP-62 NSCLC
[23] = tested on: HL-60(TB) leukemia
[24] = tested on: IGROV1 ovarian
[25] = tested on: SK-MEL-28 melanoma
[26] = tested on: KM12 colon
[27] = tested on: 786-0 renal
[28] = tested on: HCT-15 colon
[29] = tested on: SNB-75 CNS
[30] = tested on: PC-3 prostate
[31] = tested on: A498 renal
[32] = tested on: DU-145 prostate
[33] = tested on: HT29 colon
[34] = tested on: LOX IMVI melanoma
[35] = tested on: BT-549 breast
[36] = tested on: SR leukemia
[37] = tested on: TK-10 renal
[38] = tested on: EKVX NSCLC
[39] = tested on: NCI/ADR-RES ovarian
[40] = tested on: MOLT-4 leukemia
[41] = tested on: T-47D breast
[42] = tested on: OVCAR-5 ovarian
[43] = tested on: UO-31 renal
[44] = tested on: UACC-62 melanoma
[45] = tested on: SK-MEL-2 melanoma
[46] = tested on: SN12C renal
[47] = tested on: RPMI-8226 leukemia
[48] = tested on: OVCAR-8 ovarian
[49] = tested on: NCI-H322M lung
[50] = tested on: SK-OV-3 ovarian
[51] = tested on: HOP-92 NSCLC
[52] = tested on: MDA-MB-435 melanoma
[53] = tested on: MDA-MB-231 breast
[54] = tested on: SW-620 colon
[55] = tested on: MALME-3M melanoma
[56] = tested on: SF-268 CNS
[57] = tested on: CAKI-1 renal
[58] = tested on: COLO 205 colon
[59] = tested on: NCI-H226 lung

Cc1cc(C)c(S(=O)(=O)N(CCc2cccc(Br)c2)Cc2ccc(-c3cccc(S(C)(=O)=O)c3)cc2)c(C)c1
> 100 µM: TGI [1] | TGI [2] | TGI [3] | TGI [4] | TGI [5] | TGI [6] | TGI [7] | TGI [8] | TGI [9] | TGI [10] | TGI [12] | TGI [13] | TGI [14] | TGI [15] | TGI [16] | TGI [17] | TGI [18] | TGI [19] | TGI [20] | TGI [21] | TGI [22] | TGI [23] | TGI [24] | TGI [25] | TGI [26] | TGI [27] | TGI [28] | TGI [29] | TGI [30] | TGI [31] | TGI [32] | TGI [33] | TGI [34] | TGI [35] | TGI [36] | TGI [37] | TGI [38] | TGI [39] | TGI [40] | TGI [41] | TGI [42] | TGI [43] | TGI [44] | TGI [45] | TGI [46] | TGI [47] | TGI [48] | TGI [49] | TGI [50] | TGI [51] | TGI [52] | TGI [53] | TGI [54] | TGI [55] | TGI [56] | TGI [57] | TGI [58] | TGI [59]
inactive: GI50 [1] > 100 µM | GI50 [2] > 100 µM | GI50 [3] > 100 µM | GI50 [4] > 100 µM | GI50 [5] > 100 µM | GI50 [6] > 100 µM | GI50 [7] > 100 µM | GI50 [8] > 100 µM | GI50 [9] > 100 µM | GI50 [10] > 100 µM | GI50 [12] > 100 µM | GI50 [13] > 100 µM | GI50 [14] > 100 µM | GI50 [15] > 100 µM | GI50 [16] > 100 µM | GI50 [17] > 100 µM | GI50 [18] > 100 µM | GI50 [19] > 100 µM | GI50 [20] > 100 µM | GI50 [21] > 100 µM | GI50 [22] > 100 µM | GI50 [24] > 100 µM | GI50 [25] > 100 µM | GI50 [26] > 100 µM | GI50 [27] > 100 µM | GI50 [28] > 100 µM | GI50 [29] > 100 µM | GI50 [30] > 100 µM | GI50 [31] > 100 µM | GI50 [32] > 100 µM | GI50 [33] > 100 µM | GI50 [34] > 100 µM | GI50 [35] > 100 µM | GI50 [37] > 100 µM | GI50 [38] > 100 µM | GI50 [39] > 100 µM | GI50 [40] > 100 µM | GI50 [41] > 100 µM | GI50 [42] > 100 µM | GI50 [43] > 100 µM | GI50 [44] > 100 µM | GI50 [45] > 100 µM | GI50 [46] > 100 µM | GI50 [47] > 100 µM | GI50 [48] > 100 µM | GI50 [49] > 100 µM | GI50 [50] > 100 µM | GI50 [51] > 100 µM | GI50 [52] > 100 µM | GI50 [53] > 100 µM | GI50 [54] > 100 µM | GI50 [55] > 100 µM | GI50 [56] > 100 µM | GI50 [57] > 81.9 µM | GI50 [58] > 100 µM | GI50 [59] > 100 µM
active: GI50 [11] 0.0672 µM
